Measured values published in patent US6747135B1, “Fluorescent dye binding peptides” (The Board of Trustees for the Leland Stanford Junior …, priority 1998, dated 2004).
Entries after “also recorded” stand apart in the source; their conditions may differ.

Experiments:
[1] = Peptide-Texas Red binding in solution, excitation and emission spectra; details: for changes in peak excitation or emission: concentrated peptide with 50 nM Texas Red; for peak emission shift / peak excitation shift: 10 μM peptide, 50 nM Texas Red, TBS, 1 hr RT
Description: FIGS. 5A and 5B. Peptide—Texas Red binding. Excitation and emission spectra. Peptides at the noted concentrations were incubated with Texas Red (50 nM), or without, in 0.6 ml of TBS for 1 hr at room temperature (RT). Samples were scanned on a spectrofluorimeter (SPEX Fluoromax (Jobin Yvon-SPEX Instruments Co.)). Excitation and excitation/emission peak shifts for PepTR401(10 μM)/Texas Red and PepTRS311 (10 μM)/Texas Red complexes, respectively (A), were reproducible in three independent experiments. The results of a single experiment are presented.
(§1) The above test only checks for bound dye that remains fluorescent at the wavelengths tested. Binding of fluorophore dyes to specific peptides might result in changes in the fluorescence spectra of bound dye versus the spectra of free dye. Or, one might observe an increase or quenching of fluorescence. We mixed concentrated peptide with 50 nM of the corresponding dye in solution and determined the excitation and emission spectra of the resulting mixture.
We attempted with these findings to obtain an affinity measurement for the higher affinity TRS311 peptide. Peptides in different concentrations (1.3-20 μM) were incubated with Texas Red (50 nM) in 0.6 ml of TBS buffer for 1 hr at RT. Excitation and emission spectra of samples were obtained by using spectrofluorimeter SPEX Fluoromax (Jobin Yvon-SPEX Instruments Co.) and DataMax software package. Peak positions were automatically calculated by software. List mode data was saved for other analyses.

[2] = Dye binding to peptide-coated cobalt Sepharose beads, fluorescence microscopy; details: 0.5 μM Texas Red in TBS, 1 hr, RT
Description: FIG. 6. Texas Red-specific peptide PepTR401 (Panel A), PepTRS311 (Panel B), PepTR406 (Panel C) and nonspecific PepControl (Panel D) (see peptide sequences in Table 4) were bound via His6 tag to cobalt ion-containing Sepharose beads. The peptide coated beats were washed and incubated with 0.5 micromolar Texas Red in TBS for 1 hour at room temperature followed by several washings of beads in order to remove unbound dye. Fluorescent and nonflourescent control beads were photographed on fluorescent microscope Axiophot (Zeiss) using Rhodamine Red/Texas Red filter with the same time exposure for every sample. All binding experiments were accomplished in three parallels and results of a single experiments are shown.
Peptides were bound to cobalt ion-coated Sepharose beads and the resultant peptide-coated beads were incubated with corresponding fluorophore dyes, washed, and visualized for dye binding. The same amounts of Texas Red-specific peptides PepTR401, PepTRS311, PepTR406 as well as nonspecific peptide PepControl (see Table 4) were bound via His6 tag to the TALON Metal Affinity Resin (Clontech) in TBS buffer essentially as described by manufacturer's protocol. Beads (5 μl) were washed twice with 0.5 ml TBS to remove unbound peptide and incubated with 0.5 μM Texas Red in 40 μl of TBS buffer for 1 hr at RT. Finally, the beads were washed three times with 0.3 ml TBS to remove unbound dye. Fluorescent and nonfluorescent control beads were photographed with 10-fold magnification on fluorescent microscope Axiophot (Zeiss) using Rhodamine Red/Texas Red filter with 5″ exposure.

[3] = Binding affinity of phage clones carrying SKVILFE-flanked fluorettes; details: phage clone, SKVILFE-flanked fluorette
[4] = Phage binding to Oregon Green 514 carrier beads, plaque assay of bound phage; details: for Kd: phage clone, Oregon Green 514 carrier beads
Description: (§2) These mutations may be important for increasing the overall affinity of the peptide fluorette-fluorophore interaction. We tested one of each of the phage from the secondary screens for increases in avidity (Table 3). PEG-purified TR401 phage, TRS311 phage or the amplified Ph.D.-12 phage display peptide library phage as a negative control (input 1.5×10^8-1.1×10^10 pfu with 2 to 5-fold increments) were incubated with 23.5 μl of BSA-blocked and washed Texas Red carrier beads in binding buffer (see above) in total volume 40 μl for 3 hr. Beads suspensions were centrifuged, the supernatants (unbound phage) were titrated and dissociation constants were measured via a standard linear Scatchard plot. For TR401 and TRS311 phage bound/unbound ratios were quite reliable (6.3-13.1 in the range of phage concentrations shown above). All binding experiments were performed in duplicate and titrations were performed in triplicate. […] For higher Kd, bound/unbound ratios became unreliable (=1).
(§3) Other PEG-purified phage (input 5×10^8-2.5×10^10 pfu with 2 to 5-fold increments) were bound to the respective fluorophore dye carriers essentially in the same manner as described above for Texas Red-specific phage. RhR401 and RhRS308, OG403 and OGS316, OG402 and FluS303 phage, were bound to the Rhodamine Red, Oregon Green 514 or Fluorescein carriers, respectively. Following binding the beads were quickly washed twice by 0.25 ml of TBS+0.1% Tween-20 and suspended in 10 ml TBS. 10 μl of suspension was mixed with ^−2×10^8 log-phase ER2537 cells and incubated 1 hr at 4° C. with slight shaking to allow phage adsorption. Several ten-fold dilutions of infected cells were mixed with noninfected ER2537 cells and plated in standard plaque assay (Sambrook et al., supra). All binding experiments and titrations were accomplished in duplicate. […] For all above phage pfu/particle ratio was in the range 0.4-0.5.

[5] = Phage-free fluorophore dye binding in solution (PEG precipitation, filter scan); details: vs unselected library phage
Text: FIG. 3. Phage-fluorophore dye binding. Fluorophore dye-specific OG403, OG402, RhR401 and TR401 phage were bound to Oregon Green 514, Fluorescein, Rhodamine Red and Texas Red “free” dyes, respectively (see text). The normalized particle amounts of amplified Ph.D.-12 phage display peptide library (nonspecific phage) were bound in solution with the same dyes as controls. Phage-fluorophore dye complexes were precipitated three times by PEG to remove unbound dye and spotted to a nitrocellulose filter. The filter was scanned on the Storm 840 scanner (Molecular Dynamics). The presented data is from a single scan and image enhancements were done simultaneously on the complete set of dye binding results using NIH Image 1.59 software. Specific/nonspecific signal ratios were quantified by densitometry of spot images using NIH Image 1.59 software (see Materials and Methods for details). All binding experiments shown were completed in duplicate. Densitometry was carried out prior to contrast enhancement. Brightness and contrast values were modified to 50 and 65, respectively in Adobe Photoshop. Individual elements of the figure were arranged as a composite from the same original scan from which the binding ratios were determined.
Four activated derivatives of fluorophore dyes (see above) were quenched in 0.5M Tris-HCl, pH 8.7 and used as “free” dyes. Ten μl of PEG-purified and 300-fold concentrated phage TR401, RhR401, OG402, OG403 (1.3-1.8×10^12 phage particles; calculated from optical densities of the purified phage at 260 and 280 nm) in TBS+0.05% sodium azide buffer were separately mixed with an equal volume of 20 μM solution of the corresponding free dyes in the same buffer; mixtures were adjusted by Tween-20 to 0.1% and incubated for 3 hr. Phage-fluorophore dye complexes were precipitated three times by PEG-8000 in order to remove unbound dye and dissolved in 6.6 μl of TBS+0.05% sodium azide buffer. Finally, phage-fluorophore dye complexes (1 μl of each) were spotted to nitrocellulose filter and filter was scanned on the Storm 840 scanner (Molecular Dynamics) in Blue Fluorescence/Chemifluorescence mode with 200 μ pixel resolution. To determine nonspecific binding the normalized amounts of phage particles of amplified, unselected, and PEG-purified Ph.D.-12 phage display peptide library were separately incubated with the corresponding free dyes and treated in the same conditions. All binding experiments were accomplished in duplicate. Specific/nonspecific signal ratios were quantified by densitometry of spot images using “Measure” option of NIH Image 1.59 freeware package.

[6] = Cross-binding of Rhodamine Red-selected phage to the inappropriate dye carrier; details: RhR-4 phage on Texas Red carrier, vs nonspecific phage background
Text: (§4) We tested the binding specificity and excluded the possibility that the TR401 and RhR401 phage were selected against the polymer linker moiety rather than a fluorophore dye moiety of the dye carriers. The TR-4 and RhR-4 phage were cross-bound to Rhbdamine Red and Texas Red carriers, respectively. […] Thus the TR401 and RhR401 fluorettes are specific by this comparison for their respective conjugated dyes, despite the similarity of the compound core ring structures. Second, they had affinity for the corresponding conjugated fluorophore dyes rather than only a polymer linker moiety of Texas Red and Rhodamine Red carriers or other chemical features of the carriers themselves.

[7] = Phage binding to Rhodamine Red carrier beads, plaque assay of bound phage; details: for Kd: phage clone, Rhodamine Red carrier beads
Description: as §2, §3

[8] = Peptide-Fluorescein binding in solution, excitation and emission spectra; details: peptide with 50 nM Fluorescein
Description: as §1

[9] = Dye binding to peptide-coated cobalt Sepharose beads, fluorescence microscopy; details: Fluorescein
[10] = as above; details: Oregon Green 514
[11] = Phage direct binding to Texas Red carrier beads, Scatchard plot; details: phage clone (5 pIII-fluorette copies, avidity), 3 hr
Description: as §2

[12] = Cross-binding of Texas Red-selected phage to the inappropriate dye carrier; details: TR-4 phage on Rhodamine Red carrier, vs nonspecific phage background
Text: as §4

[13] = Phage binding to Fluorescein carrier beads, plaque assay of bound phage; details: for Kd: phage clone, Fluorescein carrier beads
Description: as §2, §3

[14] = Binding affinity of synthetic constrained peptides to Texas Red; details: for Kd: synthetic SKVILFE-flanked peptide; for fold more avid than linear TR401 and TRS311 peptides: synthetic constrained vs linear peptides

ASGSGASGSAGSGGGSAETVGGGHHHHHH [control peptide, reference compound]
changes in peak excitation or emission [1]: No detectable changes

DFLOWKLAROKPGGGSAETVGGGHHHHHH (DFLQWKLARQKPGGGSAETVGGGHHHHHH; fluorette) [PepTR406]
changes in peak excitation or emission [1]: No detectable changes | dye binding to peptide-coated beads [2]: did not bind

EPMARPWERKQDR [TRP527]
Kd [3]: > 5 nM

GNQKCLQHNRCST [TRP518]
Kd [3]: > 5 nM

GTLSATRPYGRQW [TRP541]
Kd [3]: > 5 nM

HEWEYYWDWTAW [OGS316]
Affinity increase (fold) ([4]; mutant fluorette phage vs parental OG403 phage): 2.7 fold | Kd [4]: 2.4 nM

HGWDYYWDWTAW [OG403]
phage binding of free fluorophore dye in solution ([5]; free Oregon Green 514, 3 hr): specifically bound | Kd [4]: 6.4 nM

IPHPPMYWTRVF [RhR401]
phage binding of free fluorophore dye in solution ([5]; free Rhodamine Red, 3 hr): specifically bound | binding specificity, cross-binding to inappropriate dye carrier [6]: specific | Kd [7]: 23 nM

IPHRPMYWTPVF [RhRS308]
Affinity increase (fold) ([7]; mutant fluorette phage vs parental RhR401 phage): not even marginally improved; also recorded: no increase | Kd [7]: 21.5 nM

KHVOYWTOMFYSGGGSAETVGGGHHHHHH (KHVQYWTQMFYSGGGSAETVGGGHHHHHH; fluorette) [PepTR401]
peak emission shift [1]: no emission shift change | peak excitation shift [1]: +1.9 nm | dye binding to peptide-coated beads [2]: significant binding | shift in Fluorescein excitation or emission spectra [8]: no shift | dye binding to peptide-coated beads [9]: bound to neither Oregon Green 514 nor Fluorescein | dye binding to peptide-coated beads [10]: bound to neither Oregon Green 514 nor Fluorescein

KHVQYWTQMFYS [TR401]
phage binding of free fluorophore dye in solution ([5]; free Texas Red, 3 hr): specifically bound | Kd [11]: 0.27 nM | binding specificity, cross-binding to inappropriate dye carrier [12]: specific

KPVOYWTOMFYTGGGSAETVGGGHHHHHH (KPVQYWTQMFYTGGGSAETVGGGHHHHHH; fluorette) [PepTRS311]
peak emission shift [1]: 1.4 nm | peak excitation shift [1]: ~+2.8 nm | Kd ([1]; calculated roughly from peak shifts, peptide 1.3-20 μM, Texas Red 50 nM, read-out: affinity of the peptide for the fluorophore): 100 to 500 nM | change in peak excitation position on reducing peptide concentration ([1]; peptide from 10 μM to 1.3 μM, Texas Red 50 nM): reduced slightly, but not completely | dye binding to peptide-coated beads [2]: significant binding | dye binding to peptide-coated beads [9]: bound to neither Oregon Green 514 nor Fluorescein | dye binding to peptide-coated beads [10]: bound to neither Oregon Green 514 nor Fluorescein

KPVQYWTQMFYT [TRS311]
Kd [11]: 0.09 nM

RTIWEPKEASNHT [TRP501]
Kd [3]: 0.08 nM

RWTWEPISE [TRP512]
Kd [3]: 0.025 nM

SQTWSFPEH [TRP526]
Kd [3]: > 5 nM

WSKMGHTVT [TRP505]
Kd [3]: > 5 nM

YPNDFEWWEYYF [OG402]
phage binding of free fluorophore dye in solution ([5]; free Fluorescein, 3 hr): specifically bound | Kd [13]: 17.4 nM

YPNEFDWWDYYY [FluS303]
Affinity increase (fold) ([13]; mutant fluorette phage vs parental OG402 phage): 6.5 fold | Kd [13]: 2.7 nM

synthetic SKVILFE-flanked Texas Red-specific peptide with His6 tag (SEQ ID NO:120) (GGGSKVILFEGPAGRTIWEPKEASNHTGAPGSKVILFEGGPGHHHHHH) [TRP501 peptide]
Kd [14]: ~200 nM | fold more avid than linear TR401 and TRS311 peptides [14]: ≈ 8 fold

synthetic SKVILFE-flanked Texas Red-specific peptide with His6 tag (SEQ ID NO:121) (GGGSKVILFEGPAGRWTWEPISEGAPGSKVILFEGGPGHHHHHH) [TRP512 peptide]
Kd [14]: ~10 nM | fold more avid than linear TR401 and TRS311 peptides [14]: ≈ 160 fold
